Common to all, as to format: functional, cell-based
The target of assay [1] is Metabotropic glutamate receptor 1 (Rattus norvegicus, UniProt P23385). The assay is described as follows: Negative allosteric modulation of rat mGluR1 expressed in HEK293 cells assessed as inhibition of glutamate induced calcium mobilization by calcium mobilization assay. For orientation: A change in cytosolic calcium serves as a functional read-out for many receptors and channels.

Assay [2] deals with Metabotropic glutamate receptor 1 (Rattus norvegicus) (UniProt P23385). Kind of assay: Negative allosteric modulation of rat mGluR1 expressed in HEK293 cells assessed as calcium mobilization at 30 uM by calcium mobilization assay relative to 100 uM glutamate.
Chain of Metabotropic glutamate receptor 1 (Rattus norvegicus) (P23385 19-1199 limits assumed): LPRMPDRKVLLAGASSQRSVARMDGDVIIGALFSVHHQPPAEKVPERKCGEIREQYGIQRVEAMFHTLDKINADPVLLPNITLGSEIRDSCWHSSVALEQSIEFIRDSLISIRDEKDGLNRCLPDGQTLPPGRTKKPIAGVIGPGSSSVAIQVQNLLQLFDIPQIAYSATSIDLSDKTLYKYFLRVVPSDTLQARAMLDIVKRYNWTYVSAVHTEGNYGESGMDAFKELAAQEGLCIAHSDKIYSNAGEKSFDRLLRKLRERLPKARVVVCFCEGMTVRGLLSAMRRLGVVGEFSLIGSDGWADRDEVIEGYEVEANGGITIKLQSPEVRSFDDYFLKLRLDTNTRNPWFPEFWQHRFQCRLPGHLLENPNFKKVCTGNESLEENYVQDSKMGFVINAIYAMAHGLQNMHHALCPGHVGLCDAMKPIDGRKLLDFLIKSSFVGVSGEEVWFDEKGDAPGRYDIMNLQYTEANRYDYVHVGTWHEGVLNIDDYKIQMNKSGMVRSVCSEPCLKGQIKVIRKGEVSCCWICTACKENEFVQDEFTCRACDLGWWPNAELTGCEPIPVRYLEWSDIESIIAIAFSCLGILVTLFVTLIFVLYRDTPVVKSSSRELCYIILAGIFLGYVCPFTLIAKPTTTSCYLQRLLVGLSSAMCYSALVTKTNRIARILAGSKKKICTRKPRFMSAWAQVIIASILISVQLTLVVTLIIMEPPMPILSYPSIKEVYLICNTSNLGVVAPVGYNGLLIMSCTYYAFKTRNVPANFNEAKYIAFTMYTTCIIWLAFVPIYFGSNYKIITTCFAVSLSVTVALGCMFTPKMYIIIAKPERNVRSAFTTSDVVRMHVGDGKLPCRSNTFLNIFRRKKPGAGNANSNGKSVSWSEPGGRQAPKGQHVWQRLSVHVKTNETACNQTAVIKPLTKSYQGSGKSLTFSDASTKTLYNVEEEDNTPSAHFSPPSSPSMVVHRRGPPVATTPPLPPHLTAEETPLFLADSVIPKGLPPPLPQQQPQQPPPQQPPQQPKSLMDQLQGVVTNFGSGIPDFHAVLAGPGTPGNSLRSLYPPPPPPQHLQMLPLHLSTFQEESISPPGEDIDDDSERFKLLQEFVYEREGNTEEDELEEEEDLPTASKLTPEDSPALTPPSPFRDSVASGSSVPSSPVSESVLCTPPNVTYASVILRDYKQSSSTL
Assay [3] addresses Metabotropic glutamate receptor 5 (Rattus norvegicus, UniProt P31424). Kind of assay: Negative allosteric modulation of rat mGluR5 expressed in HEK293 cells assessed as inhibition of glutamate induced calcium mobilization by calcium mobilization assay.
The target of assay [4] is Metabotropic glutamate receptor 5 (Rattus norvegicus) (UniProt P31424). Kind of assay: Negative allosteric modulation of rat mGluR5 expressed in HEK293 cells assessed as calcium mobilization at 30 uM by calcium mobilization assay relative to 100 uM glutamate.
Chain of Metabotropic glutamate receptor 5 (Rattus norvegicus) (P31424 21-1203 limits assumed): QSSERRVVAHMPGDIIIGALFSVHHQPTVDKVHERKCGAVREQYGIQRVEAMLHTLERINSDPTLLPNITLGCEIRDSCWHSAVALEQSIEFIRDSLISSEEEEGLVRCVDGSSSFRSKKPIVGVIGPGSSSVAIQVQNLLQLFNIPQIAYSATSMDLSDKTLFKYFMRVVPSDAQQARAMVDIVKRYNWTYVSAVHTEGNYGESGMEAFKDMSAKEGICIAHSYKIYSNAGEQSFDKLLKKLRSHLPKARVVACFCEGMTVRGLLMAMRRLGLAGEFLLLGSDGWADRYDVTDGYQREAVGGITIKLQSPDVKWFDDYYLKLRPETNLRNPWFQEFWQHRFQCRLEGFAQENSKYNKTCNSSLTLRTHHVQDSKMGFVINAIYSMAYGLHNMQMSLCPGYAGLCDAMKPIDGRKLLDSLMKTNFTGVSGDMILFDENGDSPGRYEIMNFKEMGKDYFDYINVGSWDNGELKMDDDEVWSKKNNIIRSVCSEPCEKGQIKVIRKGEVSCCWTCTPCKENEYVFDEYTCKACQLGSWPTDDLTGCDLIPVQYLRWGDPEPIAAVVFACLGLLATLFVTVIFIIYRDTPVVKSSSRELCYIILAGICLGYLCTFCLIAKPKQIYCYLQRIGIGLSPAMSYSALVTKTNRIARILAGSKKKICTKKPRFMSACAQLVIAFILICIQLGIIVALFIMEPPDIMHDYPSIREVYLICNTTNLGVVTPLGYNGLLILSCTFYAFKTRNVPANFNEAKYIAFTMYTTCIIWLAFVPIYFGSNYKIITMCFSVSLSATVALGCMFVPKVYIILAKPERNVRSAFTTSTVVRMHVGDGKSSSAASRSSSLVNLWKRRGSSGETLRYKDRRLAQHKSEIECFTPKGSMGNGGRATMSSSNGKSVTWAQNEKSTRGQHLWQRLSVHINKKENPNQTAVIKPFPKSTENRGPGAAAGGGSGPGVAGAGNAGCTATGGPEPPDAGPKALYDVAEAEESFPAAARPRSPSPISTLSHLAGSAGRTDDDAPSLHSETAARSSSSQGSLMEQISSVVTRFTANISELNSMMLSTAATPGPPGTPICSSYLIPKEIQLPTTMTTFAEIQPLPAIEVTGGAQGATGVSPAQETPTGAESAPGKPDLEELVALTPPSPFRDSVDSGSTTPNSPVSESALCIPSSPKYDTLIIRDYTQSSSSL
Assay [5] addresses Metabotropic glutamate receptor 5 (Homo sapiens, UniProt P41594). Kind of assay: Negative allosteric modulation activity at recombinant human mGluR5a expressed in CHO cells assessed as inhibition of L-glutamate-induced intracellular Ca2+ mobilization.
The target of assay [6] is Metabotropic glutamate receptor 1 (Homo sapiens, UniProt Q13255). Kind of assay: Negative allosteric modulation activity at recombinant human mGluR1a expressed in CHO cells assessed as inhibition of L-glutamate-induced intracellular Ca2+ mobilization.

Data on 30 compounds can be found in ChEMBL document CHEMBL3784934, “N-Alkylpyrido[1',2':1,5]pyrazolo-[4,3-d]pyrimidin-4-amines: A new series of negative allosteric modulators of mGlu1/5 with CNS exposure in rodents” (Bioorg Med Chem Lett, 2016).

Chain of Metabotropic glutamate receptor 5 (Rattus norvegicus, UniProt P31424) (P31424 whole entry): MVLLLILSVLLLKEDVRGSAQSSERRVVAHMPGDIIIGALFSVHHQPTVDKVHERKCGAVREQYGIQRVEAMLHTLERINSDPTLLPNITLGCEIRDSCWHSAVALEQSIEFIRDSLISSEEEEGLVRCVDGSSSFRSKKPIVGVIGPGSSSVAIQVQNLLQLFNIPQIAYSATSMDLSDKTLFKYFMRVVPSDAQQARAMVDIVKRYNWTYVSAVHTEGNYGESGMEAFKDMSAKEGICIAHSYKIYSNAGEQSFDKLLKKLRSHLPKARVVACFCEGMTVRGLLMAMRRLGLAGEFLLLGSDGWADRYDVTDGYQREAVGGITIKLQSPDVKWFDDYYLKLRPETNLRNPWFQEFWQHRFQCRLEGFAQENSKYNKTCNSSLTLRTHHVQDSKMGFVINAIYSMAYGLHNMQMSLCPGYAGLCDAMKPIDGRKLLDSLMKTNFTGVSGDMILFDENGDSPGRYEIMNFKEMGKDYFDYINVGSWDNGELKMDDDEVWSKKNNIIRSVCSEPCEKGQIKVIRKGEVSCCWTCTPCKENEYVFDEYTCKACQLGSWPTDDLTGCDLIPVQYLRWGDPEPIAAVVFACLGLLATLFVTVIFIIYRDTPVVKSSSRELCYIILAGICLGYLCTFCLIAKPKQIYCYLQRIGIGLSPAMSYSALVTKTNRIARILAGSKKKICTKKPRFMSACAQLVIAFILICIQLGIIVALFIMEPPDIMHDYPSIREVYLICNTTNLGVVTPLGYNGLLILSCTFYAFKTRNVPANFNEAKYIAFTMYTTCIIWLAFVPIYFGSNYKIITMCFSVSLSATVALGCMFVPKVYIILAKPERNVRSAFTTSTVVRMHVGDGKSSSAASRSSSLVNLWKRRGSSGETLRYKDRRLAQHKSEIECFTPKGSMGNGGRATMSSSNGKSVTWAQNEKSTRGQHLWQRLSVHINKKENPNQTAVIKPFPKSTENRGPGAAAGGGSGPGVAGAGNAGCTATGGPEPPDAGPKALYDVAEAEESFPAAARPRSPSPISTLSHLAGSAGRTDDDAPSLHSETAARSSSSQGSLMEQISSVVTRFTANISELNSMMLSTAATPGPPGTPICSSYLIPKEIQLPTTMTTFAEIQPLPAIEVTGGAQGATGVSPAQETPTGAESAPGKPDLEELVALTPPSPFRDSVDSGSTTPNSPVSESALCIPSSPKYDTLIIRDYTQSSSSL
Chain of Metabotropic glutamate receptor 1 (Rattus norvegicus, UniProt P23385) (P23385 whole entry): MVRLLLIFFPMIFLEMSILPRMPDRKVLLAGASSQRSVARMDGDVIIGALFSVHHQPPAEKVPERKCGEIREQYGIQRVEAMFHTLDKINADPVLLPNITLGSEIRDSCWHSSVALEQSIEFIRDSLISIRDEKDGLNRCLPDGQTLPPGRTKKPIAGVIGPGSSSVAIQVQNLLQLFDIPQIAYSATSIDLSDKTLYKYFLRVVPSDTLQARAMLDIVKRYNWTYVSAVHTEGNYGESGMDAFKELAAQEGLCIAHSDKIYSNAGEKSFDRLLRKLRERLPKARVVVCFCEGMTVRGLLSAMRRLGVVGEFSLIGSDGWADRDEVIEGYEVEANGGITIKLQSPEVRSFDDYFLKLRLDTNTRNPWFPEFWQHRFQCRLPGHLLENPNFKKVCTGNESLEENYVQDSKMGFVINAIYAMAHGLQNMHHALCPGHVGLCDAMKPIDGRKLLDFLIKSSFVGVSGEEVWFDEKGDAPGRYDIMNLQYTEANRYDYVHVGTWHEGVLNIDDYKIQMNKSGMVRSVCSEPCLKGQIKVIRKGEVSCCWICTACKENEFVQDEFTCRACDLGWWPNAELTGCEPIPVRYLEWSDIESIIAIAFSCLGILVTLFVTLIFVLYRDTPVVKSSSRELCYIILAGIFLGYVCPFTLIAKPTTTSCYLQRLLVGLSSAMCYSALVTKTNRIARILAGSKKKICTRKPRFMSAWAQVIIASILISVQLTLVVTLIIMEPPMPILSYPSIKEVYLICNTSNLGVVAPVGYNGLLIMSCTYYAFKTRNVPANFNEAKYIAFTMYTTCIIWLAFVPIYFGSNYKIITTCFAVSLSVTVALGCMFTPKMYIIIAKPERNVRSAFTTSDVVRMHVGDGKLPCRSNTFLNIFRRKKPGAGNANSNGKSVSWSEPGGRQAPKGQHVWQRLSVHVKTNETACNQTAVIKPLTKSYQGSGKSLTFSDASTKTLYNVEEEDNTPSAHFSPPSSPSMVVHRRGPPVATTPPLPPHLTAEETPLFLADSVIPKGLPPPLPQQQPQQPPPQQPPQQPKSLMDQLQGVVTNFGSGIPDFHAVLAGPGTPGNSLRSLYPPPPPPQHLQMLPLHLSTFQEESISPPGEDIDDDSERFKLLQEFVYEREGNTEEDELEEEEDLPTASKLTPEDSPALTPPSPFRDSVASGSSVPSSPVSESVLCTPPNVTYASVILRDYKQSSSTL

For `C[C@@H](Nc1ncnc2c1nn1ccccc21)C1CC1`, the IC50 in assay [1] was > 10 µM; in assay [3] (read-out: IC50) it was > 30 µM; in assay [3] (read-out: pIC50 (converted)), > 31.6 µM. For the same compound, the %max in assay [2] was determined as 71.6%.

In the case of `CCC(C)(C)Nc1ncnc2c1nn1ccccc21`, the results for the IC50 in assay [1], in assay [3] (read-out: IC50) and in assay [3] (read-out: pIC50 (converted)) were > 10 µM, > 30 µM and > 31.6 µM, respectively. The %max in assay [2] worked out at 12.6%.

In the case of `c1ccn2nc3c(N[C@H]4C[C@@H]5CC[C@H]4C5)ncnc3c2c1`, the IC50 in assay [1] is 0.232 µM; in assay [3] (hek293, read-out: IC50) it was > 10 µM; in assay [3] (read-out: pIC50 (converted)), > 10 µM. The %max in assay [2] is 2.5%; in assay [4] it was 9.9%.

Turning to `COCCNc1nc(N[C@H]2CC[C@H](C)CC2)c2nn3ccccc3c2n1`, the IC50 in assay [1] is > 30 µM; in assay [3] (read-out: IC50) it was > 30 µM; in assay [3] (read-out: pIC50 (converted)), > 31.6 µM.

Regarding `c1ccn2nc3c(NC4CCCCCC4)ncnc3c2c1`, the IC50 in assay [1] was 0.225 µM; in assay [3] (hek293, read-out: IC50), > 10 µM; in assay [3] (read-out: pIC50 (converted)), > 10 µM. Besides, the %max in assay [2] is 2%; in assay [4] it was 20%.

Turning to `OC12CC3CC(C1)CC(Nc1ncnc4c1nn1ccccc41)(C3)C2`, the IC50 in assay [1] is 0.484 µM; in assay [3] (read-out: IC50), > 30 µM; in assay [3] (read-out: pIC50 (converted)), > 31.6 µM. Moreover, the %max in assay [2] was 2.4%.

Take `C[C@H](Nc1ncnc2c1nn1ccccc21)C1CC1`: the IC50 is > 30 µM in assay [1], > 30 µM in assay [3] (read-out: IC50) and > 31.6 µM in assay [3] (read-out: pIC50 (converted)).

Usually pIC50 stands for the IC50 on a negative log10 scale, so that one unit is a factor of ten. Turning to `C[C@H](Nc1ncnc2c1nn1ccccc21)C1CCCCC1`, the %max in assay [2] was 0.9%; in assay [4], 61.8%. Further, the negative logarithm of the IC50 (pIC50) in assay [3] (hek293) is < 5. The IC50 in assay [3] (read-out: IC50) is > 10 µM.

`c1ccn2nc3c(NC4CCCCCCC4)ncnc3c2c1`: the IC50 in assay [1] worked out at 0.094 µM; in assay [3] (read-out: IC50), 3.29 µM. The %max in assay [2] came out at 1.9%; in assay [4], 1.3%.

As to `c1ccc2c(c1)CC(Nc1ncnc3c1nn1ccccc31)C2`, in assay [1], the IC50 turned out to be 0.247 µM. Moreover, the %max in assay [2] was 2.1%; in assay [4], 17.2%.

For `C[C@@H]1[C@H]2C[C@@H](C[C@H]1Nc1ncnc3c1nn1ccccc31)C2(C)C`, the IC50 was 0.152 µM in assay [1]; > 10 µM in assay [3] (hek293, read-out: IC50); > 10 µM in assay [3] (read-out: pIC50 (converted)). The %max in assay [2] came to 2.7%; in assay [4], 9%.

On to `Cc1nc(N[C@H]2C[C@H]3CC[C@@]2(C)C3(C)C)c2nn3ccccc3c2n1`, for which the %max in assay [2] stood at 7.1%. Moreover, the IC50 in assay [3] (read-out: IC50) was > 30 µM; in assay [3] (read-out: pIC50 (converted)) it was > 31.6 µM.

On to `C[C@H](Nc1ncnc2c1nn1ccccc21)C(C)(C)C`, for which the %max in assay [2] was -0.2%. Further, the values for the IC50 in assay [3] (read-out: IC50) and in assay [3] (read-out: pIC50 (converted)) were > 30 µM and > 31.6 µM, respectively.

With `Cc1nc(N[C@H]2CC[C@H](C)CC2)c2nn3ccccc3c2n1`, the %max in assay [2] turned out to be 2.6%. Besides, the IC50 in assay [3] (read-out: IC50) is > 30 µM; in assay [3] (read-out: pIC50 (converted)), > 31.6 µM.

Consider `c1ccn2nc3c(NC45CC6CC(CC(C6)C4)C5)ncnc3c2c1`, for which the IC50 was 0.148 µM in assay [1] and 2.36 µM in assay [3] (read-out: IC50). For the same compound, the %max in assay [2] was 2.6%; in assay [4] it was 4.8%.

For `CC(C)(C)CCNc1ncnc2c1nn1ccccc21`, the IC50 in assay [1] worked out at 0.341 µM; in assay [3] (read-out: IC50), 3.6 µM. Moreover, the results for the %max in assay [2] and in assay [4] were 1.5% and 1.3%, respectively.

For the compound `CNc1nc(N[C@H]2CC[C@H](C)CC2)c2nn3ccccc3c2n1`, the values for the IC50 in assay [1], in assay [3] (read-out: IC50) and in assay [3] (read-out: pIC50 (converted)) were > 30 µM, > 30 µM and > 31.6 µM, respectively.

With `C[C@@H](Nc1ncnc2c1nn1ccccc21)C1CCCCC1`, the %max was found to be 2.4% in assay [2] and 18.4% in assay [4]. Moreover, the pIC50 in assay [3] (hek293) is < 5. Moreover, in assay [3] (read-out: IC50), the IC50 was > 10 µM.

Turning to `CC1(C)[C@@H]2CC[C@]1(C)[C@@H](Nc1ncnc3c1nn1ccccc31)C2`, in assay [2], the %max amounted to 7.1%. Moreover, the IC50 in assay [3] (read-out: IC50) was > 30 µM; in assay [3] (read-out: pIC50 (converted)) it was > 31.6 µM.

For the compound `C[C@@H](Nc1ncnc2c1nn1ccccc21)C(C)(C)C`, the %max in assay [2] was 2.2%. The IC50 in assay [3] (read-out: IC50) was > 30 µM; in assay [3] (read-out: pIC50 (converted)) it was > 31.6 µM.

`c1ccn2nc3c(NC4C5CC6CC(C5)CC4C6)ncnc3c2c1` (configuration not stated): the IC50 in assay [1] is 0.084 µM; in assay [3] (read-out: IC50) it was 1.75 µM. Moreover, the %max is 2.9% in assay [2] and 3.4% in assay [4].

For `C[C@H]1CC[C@H](Nc2nc(N)nc3c2nn2ccccc32)CC1`, the IC50 in assay [1] was 5.6 µM; in assay [3] (read-out: IC50) it was > 30 µM; in assay [3] (read-out: pIC50 (converted)), > 31.6 µM. In addition, in assay [2], the %max was 0.58%.

As to `FC1(F)CCC(Nc2ncnc3c2nn2ccccc32)CC1`, the values for the IC50 in assay [1], in assay [3] (read-out: IC50) and in assay [3] (read-out: pIC50 (converted)) were > 10 µM, > 30 µM and > 31.6 µM, respectively. The %max in assay [2] was determined as 39%.

On to `CC(C)Nc1nc(N[C@H]2CC[C@H](C)CC2)c2nn3ccccc3c2n1`, for which the IC50 in assay [1] is > 30 µM; in assay [3] (read-out: IC50), > 30 µM; in assay [3] (read-out: pIC50 (converted)), > 31.6 µM.

For `C[C@@H]1[C@@H](Nc2ncnc3c2nn2ccccc32)C[C@H]2C[C@@H]1C2(C)C`, the IC50 in assay [1] came out at 0.233 µM; in assay [3] (read-out: IC50), 2.09 µM. The values for the %max in assay [2] and in assay [4] were 3.1% and 2.3%, respectively.

For `c1ccn2nc3c(NC4CCCCC4)ncnc3c2c1`, the %max in assay [2] is -0.5%. Moreover, the values for the IC50 in assay [3] (read-out: IC50) and in assay [3] (read-out: pIC50 (converted)) were > 30 µM and > 31.6 µM, respectively.

With `OCCSc1nc2c(c(NC3Cc4ccccc4C3)n1)CCCC2`, the IC50 in assay [5] was > 9.1 µM; in assay [6], 0.028 µM.

With `CN(C)c1nc(N[C@H]2CC[C@H](C)CC2)c2nn3ccccc3c2n1`, the IC50 in assay [1] is > 30 µM; in assay [3] (read-out: IC50), > 30 µM; in assay [3] (read-out: pIC50 (converted)), > 31.6 µM.

`Cc1nc(N[C@@H]2C[C@@H]3C[C@H]([C@H]2C)C3(C)C)c2nn3ccccc3c2n1`: in assay [1], the IC50 was 0.759 µM. The %max in assay [2] turned out to be 2.4%.

For the compound `C[C@H]1CC[C@H](Nc2ncnc3c2nn2ccccc32)CC1`, the results for the IC50 in assay [1] and in assay [3] (read-out: IC50) were 0.093 µM and 2.27 µM, respectively. The %max in assay [2] and in assay [4] was 2% each time.
